Values joined by “and” are separate entries in the source; they are usually repeats but may differ in a detail not shown here. Equal values may be shown once. Toxic doses and inconclusive results are not listed.

The subject of the assay is L1210 leukemia ip in BDF1 mice, survival T/C. Briefly: NCI In Vivo Anticancer Drug Screen. Data for tumor model L1210 Leukemia (intraperitoneal) in B6D2F1 (BDF1) mice. The following applies: endpoint: mean survival time, higher = longer survival. Summed up:
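Antitumor effect is assessed in tumor-bearing animals. Survival in the compound arm is compared with a vehicle-dosed control arm and expressed as their quotient.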

The mark [1] stands for this setting: dose: 100.0 mg/kg/injection, schedule: Q01DX009 (ip), vehicle: Klucel (hydroxypropylcellulose) (HPC).
Setting [2] is: dose: 200.0 mg/kg/injection, schedule: Q01DX009 (ip), vehicle: Klucel (hydroxypropylcellulose) (HPC).
The mark [3] stands for this setting: dose: 400.0 mg/kg/injection, schedule: Q01DX009 (ip), vehicle: Klucel (hydroxypropylcellulose) (HPC).
Where [4] appears, read: dose: 1.25 mg/kg/injection, schedule: Q01DX Z (ip), vehicle: carboxymethylcellulose (CMC).
Setting [5] is: dose: 2.5 mg/kg/injection, schedule: Q01DX Z (ip), vehicle: carboxymethylcellulose (CMC).
[6] abbreviates: dose: 100.0 mg/kg/injection, schedule: Q04DX003 (ip), vehicle: Klucel (hydroxypropylcellulose) (HPC).
The mark [7] stands for this setting: dose: 200.0 mg/kg/injection, schedule: Q04DX003 (ip), vehicle: Klucel (hydroxypropylcellulose) (HPC).
The mark [8] stands for this setting: dose: 400.0 mg/kg/injection, schedule: Q04DX003 (ip), vehicle: Klucel (hydroxypropylcellulose) (HPC).

For the molecule `COc1cc(Cl)ccc1NC(=O)Oc1cccc(NC(C)=O)c1`, the T/C by setting is: under setting [1], 100 % of control; under setting [2], 89 % of control; under setting [3], 100 % of control.

With `Cc1c(NC(=O)Nc2ccc(C3=NCCN3)cc2)cccc1NC(=O)Nc1ccc(C2=NCCN2)cc1`, the T/C runs as follows: (dose: 0.62 mg/kg/injection, schedule: Q01DX Z (ip), vehicle: carboxymethylcellulose (CMC)) 92 % of control; under setting [4], 98 % of control; under setting [5], 102 % of control; (dose: 8.5 mg/kg/injection, schedule: Q01DX Z (oral), vehicle: carboxymethylcellulose (CMC)) 109 % of control; (dose: 9.0 mg/kg/injection, schedule: Q01DX Z (ip), vehicle: water) 205 % of control; (dose: 13.5 mg/kg/injection, schedule: Q01DX Z (oral), vehicle: carboxymethylcellulose (CMC)) 121 % of control. The T/C by setting is: (dose: 18.0 mg/kg/injection, schedule: Q01DX Z (ip), vehicle: water) 160 % of control; (dose: 20.0 mg/kg/injection, schedule: Q01DX Z (oral), vehicle: carboxymethylcellulose (CMC)) 111 % of control; (dose: 30.0 mg/kg/injection, schedule: Q01DX Z (oral), vehicle: carboxymethylcellulose (CMC)) 109 % of control; (dose: 36.0 mg/kg/injection, schedule: Q01DX Z (ip), vehicle: water) 111 % of control; (dose: 45.0 mg/kg/injection, schedule: Q01DX Z (oral), vehicle: carboxymethylcellulose (CMC)) 114 % of control; (dose: 62.0 mg/kg/injection, schedule: Q01DX Z (ip), vehicle: saline) 124 % of control. Besides, the T/C (dose: 125.0 mg/kg/injection, schedule: Q01DX Z (ip), vehicle: saline) was 96 % of control.

For `OCCCN1CCN(CCCC2c3ccccc3Sc3ccc(Cl)cc32)CC1` (centres undefined), the T/C (dose: 25.0 mg/kg/injection, schedule: Q04DX003 (ip), vehicle: saline) is 102 % of control and the T/C (dose: 50.0 mg/kg/injection, schedule: Q04DX003 (ip), vehicle: saline) was 109 % of control.

`Nc1ncnc2c1ccn2C1OC(CO)C(O)C1O` (centres undefined): the T/C is, setting by setting: (dose: 0.25 mg/kg/injection, schedule: Q01DX Z (ip), vehicle: carboxymethylcellulose (CMC)) 101 % of control; (dose: 0.5 mg/kg/injection, schedule: Q01DX001 (ip), vehicle: carboxymethylcellulose (CMC)) 108 % of control; (dose: 0.5 mg/kg/injection, schedule: Q01DX Z (ip), vehicle: carboxymethylcellulose (CMC)) 104 % of control; (dose: 0.5 mg/kg/injection, schedule: Q02DX009 (ip), vehicle: carboxymethylcellulose (CMC)) 109 % of control; (dose: 0.5 mg/kg/injection, schedule: Q## X003 (ip), vehicle: carboxymethylcellulose (CMC)) 110 % of control; (dose: 0.75 mg/kg/injection, schedule: Q01DX Z (ip), vehicle: carboxymethylcellulose (CMC)) 104 % of control. Also, the T/C reads like this: (dose: 1.0 mg/kg/injection, schedule: Q01DX001 (ip), vehicle: carboxymethylcellulose (CMC)) 113 % of control; (dose: 1.0 mg/kg/injection, schedule: Q01DX Z (ip), vehicle: carboxymethylcellulose (CMC)) 106 % of control; (dose: 1.0 mg/kg/injection, schedule: Q02DX009 (ip), vehicle: carboxymethylcellulose (CMC)) 115 % of control; (dose: 1.0 mg/kg/injection, schedule: Q## X003 (ip), vehicle: carboxymethylcellulose (CMC)) 111 % of control; (dose: 1.0 mg/kg/injection, schedule: Q## X005 (ip), vehicle: carboxymethylcellulose (CMC)) 113 % of control; (dose: 1.2 mg/kg/injection, schedule: Q01DX001 (ip), vehicle: carboxymethylcellulose (CMC)) 107 % of control. In addition, the T/C was 116 % of control under setting [4]; 119 % of control (dose: 1.9 mg/kg/injection, schedule: Q01DX001 (ip), vehicle: carboxymethylcellulose (CMC)); 122 % of control (dose: 2.0 mg/kg/injection, schedule: Q02DX009 (ip), vehicle: carboxymethylcellulose (CMC)); 123 % of control (dose: 2.0 mg/kg/injection, schedule: Q## X003 (ip), vehicle: carboxymethylcellulose (CMC)); 120 % of control (dose: 2.0 mg/kg/injection, schedule: Q## X005 (ip), vehicle: carboxymethylcellulose (CMC)); 98 % of control under setting [5]. Moreover, where the note is “dose: 4.0 mg/kg/injection, schedule: Q## X005 (ip), vehicle: carboxymethylcellulose (CMC)”, the T/C was 102 % of control.

Turning to `O=C1CCCC/C1=C/c1ccccc1Cl`, the T/C was 97 % of control under setting [1]; 104 % of control under setting [6]; 105 % of control under setting [2]; 104 % of control under setting [7]; 100 % of control under setting [3]; 97 % of control under setting [8].

In the case of `O=C(CNC(=O)c1ccc(Cl)c(Cl)c1)N/N=C/c1ccc(Cl)cc1`, the T/C is 93 % of control (dose: 50.0 mg/kg/injection, schedule: Q01DX009 (ip), vehicle: Klucel (hydroxypropylcellulose) (HPC)); 88 % of control under setting [1]; 98 % of control under setting [2].

For `NNC(=O)CNc1ccc(F)c(F)c1`, the T/C is, setting by setting: (dose: 100.0 mg/kg/injection, schedule: Q04DX002 (ip), vehicle: Klucel (hydroxypropylcellulose) (HPC)) 104 % of control; (dose: 200.0 mg/kg/injection, schedule: Q04DX002 (ip), vehicle: Klucel (hydroxypropylcellulose) (HPC)) 108 % of control.

`COc1ccc2c(c1)CC(OC)c1cc3c(nc1-2)-c1ccccc1CC3` (centres undefined): the T/C by setting is: under setting [1], 96 % of control; under setting [6], 102 % of control; under setting [2], 103 % of control; under setting [7], 100 % of control; under setting [3], 100 % of control; under setting [8], 98 % of control.

For the molecule `CS(=O)(=O)OCC1C2CCC(CC2)C1COS(C)(=O)=O` (centres undefined), the T/C is 100 % of control under setting [6], 103 % of control under setting [7] and 102 % of control under setting [8].

As to `CC12CC(O)C3c4ccc(O)cc4CCC3C1CCC2=O` (centres undefined), the T/C by setting is: (dose: 50.0 mg/kg/injection, schedule: Q01DX001 (ip), vehicle: carboxymethylcellulose (CMC)) 106 % of control; (dose: 100.0 mg/kg/injection, schedule: Q01DX001 (ip), vehicle: carboxymethylcellulose (CMC)) 98 % of control; (dose: 200.0 mg/kg/injection, schedule: Q01DX001 (ip), vehicle: carboxymethylcellulose (CMC)) 104 % of control; (dose: 400.0 mg/kg/injection, schedule: Q01DX001 (ip), vehicle: carboxymethylcellulose (CMC)) 104 % of control.

As for `NC1C2CC3CC1CC(C2)O3` (centres undefined), the T/C is, setting by setting: (dose: 25.0 mg/kg/injection, schedule: Q04DX002 (ip), vehicle: saline) 103 % of control; (dose: 50.0 mg/kg/injection, schedule: Q04DX002 (ip), vehicle: saline) 106 % of control; (dose: 100.0 mg/kg/injection, schedule: Q04DX002 (ip), vehicle: saline) 106 % of control.

Regarding `N#CC12CC=CCC1CCC2=N` (centres undefined), the T/C runs as follows: (dose: 12.5 mg/kg/injection, schedule: Q01DX009 (ip), vehicle: Klucel (hydroxypropylcellulose) (HPC)) 96 % of control; (dose: 25.0 mg/kg/injection, schedule: Q01DX009 (ip), vehicle: Klucel (hydroxypropylcellulose) (HPC)) 89 % of control.

In the case of `O=CNc1cc([N+](=O)[O-])cc([N+](=O)[O-])c1O`, the T/C runs as follows: under setting [6], 104 % of control; under setting [7], 100 % of control; under setting [8], 93 % of control.

In the case of `O=NN(CCCl)C(=O)NN1CCCCCC1`, the T/C reads like this: (dose: 15.0 mg/kg/injection, schedule: Q01DX001 (ip), vehicle: carboxymethylcellulose (CMC)) 101 % of control; (dose: 30.0 mg/kg/injection, schedule: Q01DX001 (ip), vehicle: carboxymethylcellulose (CMC)) 101 % of control.

`CCC1=C(CC2NCCc3ccccc32)CC2c3cc(OC)c(OC)cc3CCN2C1` (centres undefined): the T/C by setting is: (dose: 4.0 mg/kg/injection, schedule: Q04DX003 (ip), vehicle: water) 103 % of control; (dose: 8.0 mg/kg/injection, schedule: Q04DX003 (ip), vehicle: water) 103 % of control; (dose: 16.0 mg/kg/injection, schedule: Q04DX003 (ip), vehicle: water) 102 % of control; (dose: 32.0 mg/kg/injection, schedule: Q04DX003 (ip), vehicle: water) 102 % of control; (dose: 64.0 mg/kg/injection, schedule: Q04DX003 (ip), vehicle: water) 102 % of control; (dose: 75.0 mg/kg/injection, schedule: Q01DX001 (ip), vehicle: saline) 95 % of control and 103 % of control. In addition, the T/C is, setting by setting: (dose: 150.0 mg/kg/injection, schedule: Q01DX001 (ip), vehicle: saline) 100 % of control and 103 % of control; (dose: 300.0 mg/kg/injection, schedule: Q01DX001 (ip), vehicle: saline) 100 % of control.

(Values after PubChem BioAssay AID248 (DTP/NCI, 2004).)
